# Laboratory results from US11071738B2, “Therapeutic agent for fatty liver diseases and therapeutic agent for adiposity” (Hiroshima University, priority 2017, dated 2021).
# Biological target: T1, Pin1 (Homo sapiens, UniProt Q13526)
# T1 construct: endogenous in cells; host or cells: 293T cells
# Test: Cell-based Pin1 inhibition assay with AMPK phosphorylation level as index
# Set-up: key to Pin1 inhibition activity: +++: a higher level of AMPK phosphorylation is promoted, as compared with C1; ++: a similar level of AMPK phosphorylation is promoted, as compared with C1; +: a lower level of AMPK phosphorylation is promoted, as compared with C1; −: no or almost no promotion is found in AMPK phosphorylation
# Conditions: 293T cells, compound at 100 μM, 10 mM 2-DG, pAMPK blot compared with C1
# Experimental: To evaluate the inhibitory activity of each synthesized compound against the function of Pin1, a cell-based assay was performed according to the method previously developed by the inventors (Yusuke Nakatsu et al., Journal of Biological Chemistry, 2015, Vol. 290, No. 40, pp. 24255-24266), in which the phosphorylation level of AMPK (AMP-activated protein kinase), a protein whose phosphorylation is inhibited by Pin1, was examined as an index.
# Briefly, 293T cells were plated on a collagen-coated 24-well plate. Forty-eight hours later, each compound synthesized in the preceding example (at 100 μM) was added to the plate, and the plate was left to stand in an incubator for 30 minutes. Subsequently, 10 mM 2-DG was added to the plate, and one hour later, each sample was collected with a buffer containing mercaptoethanol and SDS.
# SDS-PAGE and blotting were performed, and blocking was then performed with 3% BSA for 1 hour, according to conventional protocols. Subsequently, a pAMPK antibody (Cell Signaling; diluted 1:2000 in Can Get Signal Solution 1, Toyobo) as a primary antibody, and an HRP-linked anti rabbit IgG (GE Healthcare; diluted 1:4000 in Can Get Signal Solution 2, Toyobo) as a secondary antibody were allowed to react at ambient temperature for 1 hour prior to detection.
# The inhibitory activity against the function of Pin1 was evaluated by comparing the inhibition levels between each compound and a known Pin1 inhibitor, C1, as indicated below: […]
# T1 sequence (Q13526 whole entry): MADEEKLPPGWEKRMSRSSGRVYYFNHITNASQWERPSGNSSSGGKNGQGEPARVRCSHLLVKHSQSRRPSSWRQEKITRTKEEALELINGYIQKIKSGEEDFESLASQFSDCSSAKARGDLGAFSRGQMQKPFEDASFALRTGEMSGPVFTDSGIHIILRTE
row,Structure (SMILES),Pin1 inhibition activity
1,O=C(O[C@H](Cc1ccc2ccccc2c1)C(=O)OCc1ccccc1)c1ccc2ccccc2c1 [Compound H-21],"− (Hydrolysis causes conversion to H-30, which is active)"
2,O=C(O[C@H](Cc1ccc2ccccc2c1)C(=O)O)c1ccc(C(O)c2ccccc2)cc1 (some centres unmarked) [Compound H-23],++
3,O=C(O[C@H](Cc1ccc2ccccc2c1)C(=O)O)c1ccc2ccccc2c1 [Compound H-30],++
4,O=C(O[C@H](Cc1ccc2ccccc2c1)C(=O)O)C1c2ccccc2-c2ccccc21 [Compound H-31],+++
5,COc1ccc(-c2cc(C(=O)O[C@H](Cc3ccc4ccccc4c3)C(=O)O)c(C)o2)cc1 [Compound H-32],+
6,O=C(O[C@H](Cc1ccc2ccccc2c1)C(=O)O)c1ccc(-c2ccccc2)cc1 [Compound H-33],+
7,COC(=O)c1ccc2cc(C(=O)N[C@H](Cc3ccc4ccccc4c3)C(=O)O)ccc2c1 [Compound H-62],+
8,O=C(O)[C@@H](Cc1ccc2ccccc2c1)NC(=O)C1(O)c2ccccc2-c2ccccc21 [Compound H-101],++
9,O=C(CC1c2ccccc2-c2ccccc21)N[C@H](Cc1ccc2ccccc2c1)C(=O)O [Compound H-103],+++
10,O=C(N[C@H](Cc1ccc2ccccc2c1)C(=O)OCc1ccccc1)C1c2ccccc2-c2ccccc21 [Compound H-105],"− (Hydrolysis causes conversion to H-109, which is active)"
11,O=C(CC1c2ccccc2-c2ccccc21)O[C@H](Cc1ccc2ccccc2c1)C(=O)O [Compound H-106],++
12,O=C(N[C@H](Cc1ccc2ccccc2c1)C(=O)O)C1c2ccccc2-c2ccccc21 [Compound H-109],+++
13,O=C(O[C@H](Cc1ccc2ccccc2c1)C(=O)O)c1ccc(Oc2ccccc2)cc1 [Compound H-123],++
14,O=C(O[C@H](Cc1ccc2ccccc2c1)C(=O)O)c1cccc(Oc2ccccc2)c1 [Compound H-130],++
15,O=C(O[C@H](Cc1ccc2ccccc2c1)C(=O)O)c1ccccc1Oc1ccccc1 [Compound H-132],+
16,O=C(O[C@H](Cc1ccc2ccccc2c1)C(=O)O)C(c1ccccc1)c1ccccc1 [Compound H-134],++
17,O=C(O[C@@H](Cc1ccc2ccccc2c1)C(=O)O)C1c2ccccc2-c2ccccc21 [Compound H-141],+++
18,O=C(Cc1ccc2ccccc2c1)O[C@H](Cc1ccc2ccccc2c1)C(=O)O [Compound H-149],+
19,O=C(Cc1cccc2ccccc12)O[C@H](Cc1ccc2ccccc2c1)C(=O)O [Compound H-151],++
20,O=C(O)[C@@H](Cc1ccc2ccccc2c1)OC(=O)N1c2ccccc2Oc2ccccc21 [Compound H-157],++
21,O=C(Cc1ccc2ccccc2c1)N[C@H](Cc1ccc2ccccc2c1)C(=O)O [Compound H-158],++
22,O=C(O)[C@@H](Cc1ccc2ccccc2c1)NC(=O)N(c1ccccc1)c1ccccc1 [Compound H-161],++

row,Structure (SMILES),Pin1 inhibition activity
1,O=C(O)[C@@H](Cc1ccc2ccccc2c1)NC(=O)N1c2ccccc2Oc2ccccc21 [Compound H-162],++
2,O=C(O)[C@@H](Cc1ccc2ccccc2c1)NC(=O)n1c2ccccc2c2ccccc21 [Compound H-163],++
3,O=C(O)[C@@H](Cc1ccc2ccccc2c1)NC(=O)N1c2ccccc2C=Cc2ccccc21 [Compound H-164],+
4,O=C(O)[C@@H](Cc1ccc2ccccc2c1)OC(=O)n1c2ccccc2c2ccccc21 [Compound H-175],+++
5,O=C(COc1ccccc1)O[C@H](Cc1ccc2ccccc2c1)C(=O)O [Compound H-176],++
6,O=C(COc1ccc2ccccc2c1)O[C@H](Cc1ccc2ccccc2c1)C(=O)O [Compound H-177],++
7,O=C(O)[C@@H](Cc1ccc2ccccc2c1)NC(=O)N1c2ccccc2CCc2ccccc21 [Compound H-178],+++
8,O=C(COc1cccc2ccccc12)O[C@H](Cc1ccc2ccccc2c1)C(=O)O [Compound H-179],+++
9,O=C(Cc1c[nH]c2ccccc12)O[C@H](Cc1ccc2ccccc2c1)C(=O)O [Compound H-180],++
10,COc1cc(OC)cc(C(=O)O[C@H](Cc2ccc3ccccc3c2)C(=O)O)c1 [Compound H-198],+
11,O=C(O[C@H](Cc1ccc2ccccc2c1)C(=O)O)c1cc(Cl)cc(Cl)c1 [Compound H-200],+
12,Cc1cc(C)cc(C(=O)O[C@H](Cc2ccc3ccccc3c2)C(=O)O)c1 [Compound H-210],+
13,CN(C)c1ccc(C(=O)O[C@H](Cc2ccc3ccccc3c2)C(=O)O)cc1 [Compound H-212],+
14,CC(C)(C)OC(=O)N[C@@H](Cc1ccccc1)C(=O)O[C@H](Cc1ccc2ccccc2c1)C(=O)O [Compound H-248],+
15,Cc1ccc(C(=O)O[C@H](Cc2ccc3ccccc3c2)C(=O)O)cc1C [Compound H-265],+
16,COc1ccc(C(=O)O[C@H](Cc2ccc3ccccc3c2)C(=O)O)cc1OC [Compound H-266],+
17,O=C(O[C@H](Cc1ccc2ccccc2c1)C(=O)O)c1ccc(Cl)c(Cl)c1 [Compound H-269],+
18,O=C(O[C@H](Cc1ccc2ccccc2c1)C(=O)O)c1ccc(F)c(F)c1 [Compound H-270],+
19,O=C(Nc1ccccc1Oc1ccccc1)N[C@H](Cc1ccc2ccccc2c1)C(=O)O [Compound H-334],+++
20,O=C(Nc1ccc(C(=O)c2ccccc2)cc1)N[C@H](Cc1ccc2ccccc2c1)C(=O)O [Compound H-341],++
21,COC(=O)[C@@H](Cc1ccc2ccccc2c1)NC(=O)CN1c2ccccc2C2C=CC=CC21 (some centres unmarked) [Compound H-521],+
22,O=C(Cn1c2ccccc2c2ccccc21)N[C@H](Cc1ccc2ccccc2c1)C(=O)O [Compound H-536],+

# Same assay, conditions: cell-based assay, 293T cells, compound at 100 μM
row,Structure (SMILES),Pin1 inhibition activity (in words)
1,O=C(N[C@H](Cc1ccc2ccccc2c1)C(=O)OCc1ccccc1)C1c2ccccc2-c2ccccc21 [Compound H-105],no Pin1 inhibition activity

# Tested on: NASH mice (MCDD)
# Test: NASH treatment study in mice fed a methionine-choline-deficient diet (MCDD)
# Type: in vivo, mice (C57BL/6J)
# Conditions: NASH mice given MCDD, 8 weeks; i.p. 2.5 mg/kg/day three times a week
# Experimental: Next, an animal experiment was performed on NASH mice that were produced by feeding a methionine-choline-deficient diet (MCDD).
Structure (SMILES),hepatic fibrosis (Azan staining),fat accumulation in liver tissue (microscopic observation)
O=C(O[C@H](Cc1ccc2ccccc2c1)C(=O)O)C1c2ccccc2-c2ccccc21 [Compound H-31],significantly inhibited,–
O=C(O)[C@@H](Cc1ccc2ccccc2c1)NC(=O)n1c2ccccc2c2ccccc21 [Compound H-163],significantly inhibited,reduced

# Same assay, conditions: NASH mice given MCDD; i.p. 2.5 mg/kg/day three times a week
Structure (SMILES),Collagen 1a1 mRNA expression level,Collagen 1a2 mRNA expression level,SMA mRNA expression level
O=C(O[C@H](Cc1ccc2ccccc2c1)C(=O)O)C1c2ccccc2-c2ccccc21 [Compound H-31],reduced,reduced,reduced
O=C(O)[C@@H](Cc1ccc2ccccc2c1)NC(=O)n1c2ccccc2c2ccccc21 [Compound H-163],reduced,reduced,reduced

# Tested on: NASH model mice (HFDT)
# Test: not given
# Conditions: HFDT NASH mice, 8 weeks; i.p. 2.5 mg/kg/day or oral 5.0 mg/kg/day three times a week
# Experimental: Animal experiments were performed using non-alcoholic steatohepatitis (NASH) model mice to test the compounds synthesized in Examples for the therapeutic effect on NASH.
# NASH model mice (hereinafter referred to as “NASH mice”) were produced by feeding a high-fat diet containing trans fatty acids (HFDT) to individual male laboratory mice (C57BL/6J) for 8 weeks. […] In addition, a normal diet was given to individual male laboratory mice (C57BL/6J) for 8 weeks to prepare control mice.
Structure (SMILES),"blood ALT (GPT) value, index of liver inflammation",fasting blood glucose level,increase in liver weight
COC(=O)[C@@H](Cc1ccc2ccccc2c1)NC(=O)n1c2ccccc2c2ccccc21 [Compound H-144],decreased,no significant abnormality,significantly reduced
O=C(O)[C@@H](Cc1ccc2ccccc2c1)NC(=O)n1c2ccccc2c2ccccc21 [Compound H-163],decreased,no significant abnormality,significantly reduced

# Same assay, conditions: HFDT NASH mice, 8 weeks; oral 5.0 mg/kg/day three times a week
Structure (SMILES),fasting blood glucose level,increase in liver weight
"O=C1C=CC(=O)c2c(O)cccc21 [Juglone, reference compound]",abnormal increase,significantly reduced

# Same assay, conditions: HFDT NASH mice; i.p. 2.5 mg/kg/day three times a week
row,Structure (SMILES),death of mice
1,"O=C1C=CC(=O)c2c(O)cccc21 [Juglone, reference compound]",all dead within 8 weeks

# Same assay, conditions: HFDT NASH mice; oral 5.0 mg/kg/day three times a week
row,Structure (SMILES),death of mice
1,"O=C1C=CC(=O)c2c(O)cccc21 [Juglone, reference compound]",not dead

# Same assay, conditions: NASH mice given HFDT
row,Structure (SMILES),fat accumulation in liver tissue (microscopic observation)
1,O=C(O)[C@@H](Cc1ccc2ccccc2c1)NC(=O)n1c2ccccc2c2ccccc21 [Compound H-163],significantly reduced
